Data as given in ChEMBL document CHEMBL3885881, “DrugMatrix”.

Species on record: Rattus norvegicus
Test: DrugMatrix - Regimen: Daily Repeat
Assay type: toxicity, organism-based, Sprague-Dawley
Parameters: regimen Daily Repeat, gender Male, age 6-8 weeks
Settings: in vivo, po, route oral GAVAGE, vehicle .5 % CMC; for ABSOLUTE BASOPHIL / ABSOLUTE EOSINOPHIL / ABSOLUTE LYMPHOCYTE / ABSOLUTE MONOCYTE / ABSOLUTE SEGMENTED NEUTROPHIL / BASOPHIL / EOSINOPHIL / ERYTHROCYTE COUNT / HEMATOCRIT / HEMOGLOBIN / LEUKOCYTE COUNT / LYMPHOCYTE / MEAN CORPUSCULAR HEMOGLOBIN / MEAN CORPUSCULAR HEMOGLOBIN CONCENTRATION / MEAN CORPUSCULAR VOLUME / MONOCYTE / NEUTROPHIL / NUCLEATED RED BLOOD CELLS / PLATELET COUNT: tissue Blood; for ALANINE AMINOTRANSFERASE / ALBUMIN / ALKALINE PHOSPHATASE / ASPARTATE AMINOTRANSFERASE / BLOOD UREA NITROGEN / CARBON DIOXIDE / CHLORIDE / CHOLESTEROL / CREATINE PHOSPHOKINASE / CREATININE / GLUCOSE / LACTATE DEHYDROGENASE / LIPASE / PHOSPHORUS / POTASSIUM / SODIUM / TOTAL BILIRUBIN / TOTAL PROTEIN / URIC ACID: tissue Plasma
[1] = 8 mg/kg, 72 h, dose level High, time 3 day
[2] = 8 mg/kg, 120 h, dose level High, time 5 day
[3] = […], 72 h, dose 2.1 mg/Kg, dose level Low, time 3 day
[4] = […], 120 h, dose 2.1 mg/Kg, dose level Low, time 5 day

## C=C1CC[C@H](O)C/C1=C/C=C1\CCC[C@]2(C)[C@@H]([C@H](C)CCCC(C)C)CC[C@@H]12 [CHOLECALCIFEROL]
[1]
  ABSOLUTE BASOPHIL: 0 CELLS/uL
  ABSOLUTE EOSINOPHIL: 42 CELLS/uL
  ABSOLUTE LYMPHOCYTE: 8592.67 CELLS/uL
  ABSOLUTE MONOCYTE: 336 CELLS/uL
  ABSOLUTE SEGMENTED NEUTROPHIL: 5029.33 CELLS/uL
  BASOPHIL: 0%
  EOSINOPHIL: 0.33%
  ERYTHROCYTE COUNT: 5.75 x10E6/uL
  HEMATOCRIT: 36.93%
  HEMOGLOBIN: 14.13 G/DL
  LEUKOCYTE COUNT: 14 x10E3/uL
  LYMPHOCYTE: 61.67%
  MEAN CORPUSCULAR HEMOGLOBIN: 24.7 pg
  MEAN CORPUSCULAR HEMOGLOBIN CONCENTRATION: 38.27 G/DL
  MEAN CORPUSCULAR VOLUME: 64.53 fL
  MONOCYTE: 2.33%
  NEUTROPHIL: 35.67%
  NUCLEATED RED BLOOD CELLS: 0.33 /100WBC
  PLATELET COUNT: 1172.33 x10E3/uL
  ALANINE AMINOTRANSFERASE: 38.67 u/L
  ALBUMIN: 4 G/DL
  ALKALINE PHOSPHATASE: 218 u/L
  ASPARTATE AMINOTRANSFERASE: 93 u/L
  BLOOD UREA NITROGEN: 15.67 mg/dL
  CARBON DIOXIDE: 25 mmol/L
  CHLORIDE: 99.67 MEQ/L
  CHOLESTEROL: 85.33 mg/dL
  CREATINE PHOSPHOKINASE: 273 u/L
  CREATININE: 0.19 mg/dL
  GLUCOSE: 119.67 mg/dL
  LACTATE DEHYDROGENASE: 381 u/L
  LIPASE: 8.33 u/L
  PHOSPHORUS: 12.67 mg/dL
  POTASSIUM: 6.05 MEQ/L
  SODIUM: 144.53 MEQ/L
  TOTAL BILIRUBIN: 0.1 mg/dL
  TOTAL PROTEIN: 6.3 G/DL
  URIC ACID: 1.7 mg/dL
[2]
  ABSOLUTE BASOPHIL: 0 CELLS/uL
  ABSOLUTE EOSINOPHIL: 61.33 CELLS/uL
  ABSOLUTE LYMPHOCYTE: 15719.67 CELLS/uL
  ABSOLUTE MONOCYTE: 721.33 CELLS/uL
  ABSOLUTE SEGMENTED NEUTROPHIL: 1931 CELLS/uL
  BASOPHIL: 0%
  EOSINOPHIL: 0.33%
  ERYTHROCYTE COUNT: 6.73 x10E6/uL
  HEMATOCRIT: 40.8%
  HEMOGLOBIN: 16.17 G/DL
  LEUKOCYTE COUNT: 18.43 x10E3/uL
  LYMPHOCYTE: 84.33%
  MEAN CORPUSCULAR HEMOGLOBIN: 24 pg
  MEAN CORPUSCULAR HEMOGLOBIN CONCENTRATION: 39.67 G/DL
  MEAN CORPUSCULAR VOLUME: 60.73 fL
  MONOCYTE: 4%
  NEUTROPHIL: 11.33%
  NUCLEATED RED BLOOD CELLS: 0.33 /100WBC
  PLATELET COUNT: 1207.33 x10E3/uL
  ALANINE AMINOTRANSFERASE: 32.67 u/L
  ALBUMIN: 3.77 G/DL
  ALKALINE PHOSPHATASE: 216 u/L
  ASPARTATE AMINOTRANSFERASE: 95.67 u/L
  BLOOD UREA NITROGEN: 30.67 mg/dL
  CARBON DIOXIDE: 29.33 mmol/L
  CHLORIDE: 97 MEQ/L
  CHOLESTEROL: 84.33 mg/dL
  CREATINE PHOSPHOKINASE: 292 u/L
  CREATININE: 0.31 mg/dL
  GLUCOSE: 184 mg/dL
  LACTATE DEHYDROGENASE: 195.33 u/L
  LIPASE: 8 u/L
  PHOSPHORUS: 12.17 mg/dL
  POTASSIUM: 6.13 MEQ/L
  SODIUM: 142.43 MEQ/L
  TOTAL BILIRUBIN: 0.1 mg/dL
  TOTAL PROTEIN: 6.37 G/DL
  URIC ACID: 2.97 mg/dL
[3]
  ABSOLUTE BASOPHIL: 0 CELLS/uL
  ABSOLUTE EOSINOPHIL: 0 CELLS/uL
  ABSOLUTE LYMPHOCYTE: 13778.67 CELLS/uL
  ABSOLUTE MONOCYTE: 303 CELLS/uL
  ABSOLUTE SEGMENTED NEUTROPHIL: 1018.33 CELLS/uL
  BASOPHIL: 0%
  EOSINOPHIL: 0%
  ERYTHROCYTE COUNT: 5.26 x10E6/uL
  HEMATOCRIT: 33.23%
  HEMOGLOBIN: 13.23 G/DL
  LEUKOCYTE COUNT: 15.1 x10E3/uL
  LYMPHOCYTE: 91.33%
  MEAN CORPUSCULAR HEMOGLOBIN: 25.17 pg
  MEAN CORPUSCULAR HEMOGLOBIN CONCENTRATION: 39.83 G/DL
  MEAN CORPUSCULAR VOLUME: 63.27 fL
  MONOCYTE: 2%
  NEUTROPHIL: 6.67%
  NUCLEATED RED BLOOD CELLS: 0.33 /100WBC
  PLATELET COUNT: 1338.67 x10E3/uL
  ALANINE AMINOTRANSFERASE: 64.33 u/L
  ALBUMIN: 4.5 G/DL
  ALKALINE PHOSPHATASE: 325 u/L
  ASPARTATE AMINOTRANSFERASE: 90.33 u/L
  BLOOD UREA NITROGEN: 18 mg/dL
  CARBON DIOXIDE: 24 mmol/L
  CHLORIDE: 102.33 MEQ/L
  CHOLESTEROL: 85.67 mg/dL
  CREATINE PHOSPHOKINASE: 170.67 u/L
  CREATININE: 0.22 mg/dL
  GLUCOSE: 154.33 mg/dL
  LACTATE DEHYDROGENASE: 246.33 u/L
  LIPASE: 9.33 u/L
  PHOSPHORUS: 15.17 mg/dL
  POTASSIUM: 7.26 MEQ/L
  SODIUM: 149.17 MEQ/L
  TOTAL BILIRUBIN: 0.33 mg/dL
  TOTAL PROTEIN: 6.3 G/DL
  URIC ACID: 1.63 mg/dL
[4]
  ABSOLUTE BASOPHIL: 0 CELLS/uL
  ABSOLUTE EOSINOPHIL: 46.67 CELLS/uL
  ABSOLUTE LYMPHOCYTE: 13112 CELLS/uL
  ABSOLUTE MONOCYTE: 47.33 CELLS/uL
  ABSOLUTE SEGMENTED NEUTROPHIL: 1427.33 CELLS/uL
  BASOPHIL: 0%
  EOSINOPHIL: 0.33%
  ERYTHROCYTE COUNT: 5.69 x10E6/uL
  HEMATOCRIT: 37.6%
  HEMOGLOBIN: 14.5 G/DL
  LEUKOCYTE COUNT: 14.63 x10E3/uL
  LYMPHOCYTE: 89.67%
  MEAN CORPUSCULAR HEMOGLOBIN: 25.53 pg
  MEAN CORPUSCULAR HEMOGLOBIN CONCENTRATION: 38.57 G/DL
  MEAN CORPUSCULAR VOLUME: 66.17 fL
  MONOCYTE: 0.33%
  NEUTROPHIL: 9.67%
  NUCLEATED RED BLOOD CELLS: 0.33 /100WBC
  PLATELET COUNT: 1071 x10E3/uL
  ALANINE AMINOTRANSFERASE: 53 u/L
  ALBUMIN: 4.6 G/DL
  ALKALINE PHOSPHATASE: 301.33 u/L
  ASPARTATE AMINOTRANSFERASE: 84 u/L
  BLOOD UREA NITROGEN: 19.67 mg/dL
  CARBON DIOXIDE: 31.67 mmol/L
  CHLORIDE: 97.33 MEQ/L
  CHOLESTEROL: 72.33 mg/dL
  CREATINE PHOSPHOKINASE: 267.33 u/L
  CREATININE: 0.24 mg/dL
  GLUCOSE: 143.33 mg/dL
  LACTATE DEHYDROGENASE: 287 u/L
  LIPASE: 8.67 u/L
  PHOSPHORUS: 11.33 mg/dL
  POTASSIUM: 6.64 MEQ/L
  SODIUM: 141.97 MEQ/L
  TOTAL BILIRUBIN: 0.2 mg/dL
  URIC ACID: 1.67 mg/dL
